Laboratory results from patent US20230240296A1, “SEED TREATMENT FOR SAFENING WHEAT TO CHLOROACETAMIDE HERBICIDES” (THE BOARD OF TRUSTEES OF THE UNIVERSITY OF ARKANSAS, priority 2022, published 2023).

Tested on: wheat cultivar 'Smiths Gold'
Assay: Field trial: fenclorim seed treatment safening wheat against preemergence S-metolachlor (crop injury)
Type: in vivo
Description: Thus, in some embodiments, the methods of the present invention reduce herbicide-induced crop injury. The reduction in crop injury, due to a particular herbicide, provided by a particular safener can be determined by visually assessing crop injury in a plot of wheat treated with both the herbicide and the safener and comparing it to the crop injury observed in a control plot that was treated with the herbicide alone. Crop injury may be assessed by assigning the treated plot a rating on a scale of 0 to 100, wherein 0 indicates no crop injury and 100 indicates complete crop destruction. This score may be assigned, for example, by comparing the crop groundcover (i.e., green pixels) in the treated plot to that of the control plot using photographs.
Group 15 herbicides are promising candidates for controlling ryegrass in wheat. However, these herbicides are not currently registered for use in this crop. Thus, a field trial was conducted in Fayetteville, Ark. in fall of 2021 to test the ability of the safener fenclorim to protect wheat against the Group 15 herbicide S-metolachlor.
Seed from the conventional wheat cultivar ‘Smiths Gold’ was treated with various rates of the safener fenclorim (0, 0.5, and 2.0 g/kg seed). […] Crop injury and control of ryegrass were evaluated at two and three weeks after crop emergence. […]

SMILES: Clc1cc(Cl)nc(-c2ccccc2)n1 [fenclorim, 4,6-dichloro-2-phenyl-pyrimidine]
- safening against S-metolachlor (percentage of injury to wheat) (fenclorim seed treatment 0.5 and 2.0 g/kg seed, S-metolachlor 750 and 1120 g ai/ha preemergence, two and three weeks after crop emergence, field, Fayetteville, Ark.): significant safening was achieved
- safening shown in plot photos of wheat plants (fenclorim seed treatment 0.5 or 2.0 g/kg seed, S-metolachlor 750 g ai/ha preemergent, two weeks after crop emergence): safening provided
